Results reported in US9856232B1, “Dihydropyrimidinone derivatives” (KING SAUD UNIVERSITY, priority 2017, dated 2018).
Marks after values point to notes of the source that are not given here.

Key:
Type in all cases: in vivo, Albino Wistar rats
[1] = test system: Gastric lesions induced by necrotizing agents (80% ethanol, 0.2 mol/L NaOH or 25% NaCl); assay: Gastric lesions induced by necrotizing agents (cytoprotection); details: i.p, 30 min before necrotizing agent, mean ± SE
[2] = test system: gastric wall mucus in stomach tissue, change induced by 80% ethanol; assay: Determination of gastric wall mucus (GWM); details: i.p, 80% ethanol-treated rats, mean ± SE
Experimental: (§1) Albino Wistar rats of either sex, approximately the same age, weighing 150 to 200 g and fed on a diet of standard chow were used in this study. They were randomly divided into experimental groups of six rats each. Compounds (N-1 to N-18) 12.5, 25, and 50 mg/kg were given orally in the anti-ulcer studies and intraperitoneally for gastric secretion evaluation. The rats were sacrificed, and the stomachs removed and opened along the greater curvature, After washing with saline, the gastric lesions were quantified by a person unaware of the treatments. The animal study protocol was approved by the Research and Ethics Committee of the Experimental Animal Care Society, College of Pharmacy, King Saud University, Riyadh, Saudi Arabia.
Determination of gastric wall mucus (GWM): Gastric wall mucus was determined according to the modified procedure. The glandular segment of the stomach was separated from the rumen of the stomach, weighed, and transferred immediately to 10 mL of 0.1% w/v Alcian blue solution (in […] sucrose solution buffered with […] sodium acetate at pH 5. Tissue was stained for 2 hours in Alcian blue, and excess dye was removed by two successive rinses with 10 mL of […] sucrose, firstly after 15 minutes and then after 45 minutes. Dye complexed with the gastric wall mucus was extracted with 10 ml of […] magnesium chloride which was intermittently shaken for 1 minute at 30 minute intervals for 2 hours. Four milliliters of blue extract were then vigorously shaken with an equal volume of diethyl ether. The resulting emulsion was centrifuged at 4000 r/min for 10 minutes and the absorbance of the aqueous layer was recorded at 580 nm. The quantity of Alcian blue extracted per gram of wet glandular tissue was then calculated. Table 6 provides the effect of compounds on the change in gastric wall mucus in stomach tissue induced by 80% ethanol (mean±SE).

[3] = test system: gastric mucosa of rats treated with 80% Ethanol; assay: Histopathological evaluation of gastric tissue; details: 50 mg/kg; FIG. 15B-15F
Experimental: Histopathological evaluation: Gastric tissue samples were fixed in neutral buffered formalin for 24 hours. Sections of gastric tissue were histopathologically examined to study the ulcerogenic and/or anti-ulcerogenic activity of compounds (N-3, N-8, N-11, and N-15). The tissues were fixed in 10% buffered formalin and processed using a VIP tissue processor. The processed tissues were embedded in paraffin blocks and sections about […] thick were cut using an American optical rotary microtome. These sections were stained with haematoxylin and eosin using routine procedures. The slides were examined microscopically for pathomorphological changes such as congestion, hemorrhage, edema, and erosions using an arbitrary scale for severity assessment of these changes (FIGS. 3-14).

[4] = test system: Gastric lesions induced by 80% ethanol; assay: Gastric lesions induced by ethanol (ulcer index by severity scores); details: Rattus norvegicus, po, vs 80% EtOH group, read-out: Gastric lesions induced by 80% ethanol, % change; for inhibition in vivo at 12.5 mg/kg: compound 12.5 mg/kg; for inhibition in vivo at 25 mg/kg: compound 25 mg/kg; for inhibition in vivo at 50 mg/kg: compound 50 mg/kg
Experimental: as §1
Gastric lesions induced by ethanol: Albino rats of either sex weighing between (150-200 g) are divided into groups. The animals were fasted for 24 hours with free access to water. Animals were given test drugs or standard drug. One hour later 1 mL/200 gm of 80% ethanol is administered orally to each animal. The animals were anaesthetized 1 hour latter with anesthetic ether and stomach was incised along the greater curvature and ulceration was scored. The number of ulcers and the length of each ulcer were measured. Ulcer index was calculated using severity scores. The mucosal damage was examined by means of a magnifying glass. For each stomach the mucosal damage was assessed according to the following scoring system: 0.5 redness; 1.0 spot ulcers; 1.5 hemorrhagic streaks; 2.0 ulcers<3, but≦5; 3.0 ulcers>5. Table 1 provides the effect of compounds on gastric lesions induced by 80% ethanol (mean±SE).

[5] = test system: total protein in stomach tissue, induced by 80% ethanol; assay: Total protein in stomach tissue; details: mean ± SE
[6] = test system: Hypothermic restraint stress-induced intraluminal bleeding and gastric lesion; assay: Hypothermic restraint stress-induced ulcers; set-up: Gastric Lesion Ulcer Index: scale not given here; details: hypothermic restraint 3 h, mean ± SE
[7] = test system: Indomethacin-induced gastric mucosal lesions; assay: Gastric lesions induced by Indomethacin; set-up: scale not given here; details: i.p, 30 min before Indomethacin 30 mg/kg, mean ± SE
Excerpt: as §1, with “Compounds (N-1 to N-18) 12.5, 25, and 50 mg/kg were given orally in the anti-ulcer studies and intraperitoneally for gastric secretion evaluation.” left out
Gastric lesions induced by Indomethacin: Indomethacin was suspended in 1.0% carboxymethylcellulose (CMC) in water (6 mg/mL) and administered orally to the 36 hour fasted rats at a dose of 30 mg/kg body weight. Control rats were treated similarly with an equivalent amount of vehicle. […] The animals were sacrificed 6 hours after treatment. The stomachs were excised, rinsed with normal saline and examined for ulceration. Table 3 provides the effect of compounds on Indomethacin-induced gastric mucosal lesions (mean±SE).

[8] = dose 12.5, 80% ethanol-treated rats
[9] = dose 25, 80% ethanol-treated rats
[10] = dose 50, 80% ethanol-treated rats

Compound: COc1ccccc1C1NC(=O)NC=C1C(=O)c1ccc(N2CCCCC2)cc1 (centres unmarked) [Compound N-8, 4-(2-Methoxyphenyl)-5-[4-(piperidin-1-yl)benzoyl]-3,4-dihydropyrimidin-2(1H)-one]
- Ulcer Index, 0.2 mol/L NaOH ([1]; 12.5 mg/kg): 6.66 ± 0.33
- Ulcer Index, 25% NaCl ([1]; 12.5 mg/kg): 6.00 ± 0.25
- Ulcer Index, 80% EtOH ([1]; 12.5 mg/kg): 7.00 ± 0.36
- Ulcer Index, 0.2 mol/L NaOH ([1]; 25 mg/kg): 5.33 ± 0.71
- Ulcer Index, 25% NaCl ([1]; 25 mg/kg): 5.00 ± 0.44
- Ulcer Index, 80% EtOH ([1]; 25 mg/kg): 6.50 ± 0.42
- Ulcer Index, 0.2 mol/L NaOH ([1]; 50 mg/kg): 3.83 ± 0.30
- Ulcer Index, 25% NaCl ([1]; 50 mg/kg): 3.33 ± 0.30
- Ulcer Index, 80% EtOH ([1]; 50 mg/kg): 5.83 ± 0.30
- Gastric Wall Mucus ([2]; 12.5 mg/kg): 206.39 ± 7.18^b μg/g
- Gastric Wall Mucus ([2]; 25 mg/kg): 212.00 ± 6.40^b μg/g
- Gastric Wall Mucus ([2]; 50 mg/kg): 244.65 ± 5.36**^b μg/g
- Gastric section, effect on gastric mucosa (histology) [3]: intact normal mucosa
- inhibition in vivo at 12.5 mg/kg [4]: 33.3%
- inhibition in vivo at 25 mg/kg [4]: 50%
- inhibition in vivo at 50 mg/kg [4]: 53.3%
- Total Protein [5, 8]: 45.90 ± 1.14^b g/L
- Total Protein [5, 9]: 55.88 ± 1.71*^b g/L
- Total Protein [5, 10]: 66.26 ± 1.47 g/L
- Gastric Lesion Ulcer Index ([6]; 12.5 mg/kg): 29.83 ± 1.50
- Intraluminal Bleeding Score ([6]; 12.5 mg/kg): 3.50 ± 0.42
- Gastric Lesion Ulcer Index ([6]; 25 mg/kg): 27.66 ± 1.60
- Intraluminal Bleeding Score ([6]; 25 mg/kg): 3.33 ± 0.21
- Gastric Lesion Ulcer Index ([6]; 50 mg/kg): 18.66 ± 0.55
- Intraluminal Bleeding Score ([6]; 50 mg/kg): 2.50 ± 0.42
- Ulcer Index, indomethacin-induced gastric mucosal lesions ([7]; 12.5 mg/kg): 33.00 ± 1.52
- Ulcer Index, indomethacin-induced gastric mucosal lesions ([7]; 25 mg/kg): 29.50 ± 1.58
- Ulcer Index, indomethacin-induced gastric mucosal lesions ([7]; 50 mg/kg): 28.66 ± 1.45

Compound: CN(C)c1ccc(C2NC(=O)NC=C2C(=O)c2ccc(N3CCCCC3)cc2)cc1 (centres unmarked) [Compound N-11, 4-(4-Dimethylaminophenyl)-5-[4-(piperidin-1-yl)benzoyl]-3,4-dihydropyrimidin-2(1H)-one]
- Ulcer Index, 0.2 mol/L NaOH ([1]; 12.5 mg/kg): 6.33 ± 0.42
- Ulcer Index, 25% NaCl ([1]; 12.5 mg/kg): 6.00 ± 0.36
- Ulcer Index, 80% EtOH ([1]; 12.5 mg/kg): 7.16 ± 0.30
- Ulcer Index, 0.2 mol/L NaOH ([1]; 25 mg/kg): 3.66 ± 0.21
- Ulcer Index, 25% NaCl ([1]; 25 mg/kg): 4.83 ± 0.40
- Ulcer Index, 80% EtOH ([1]; 25 mg/kg): 6.16 ± 0.30
- Ulcer Index, 0.2 mol/L NaOH ([1]; 50 mg/kg): 3.66 ± 0.33
- Ulcer Index, 25% NaCl ([1]; 50 mg/kg): 3.83 ± 0.30
- Ulcer Index, 80% EtOH ([1]; 50 mg/kg): 4.83 ± 0.30
- Gastric Wall Mucus ([2]; 12.5 mg/kg): 192.87 ± 12.84^b μg/g
- Gastric Wall Mucus ([2]; 25 mg/kg): 224.88 ± 4.64*^b μg/g
- Gastric Wall Mucus ([2]; 50 mg/kg): 217.36 ± 3.31**^b μg/g
- Gastric section, effect on gastric mucosa (histology) [3]: intact normal mucosa
- inhibition in vivo at 12.5 mg/kg [4]: 22.5%
- inhibition in vivo at 25 mg/kg [4]: 48.3%
- inhibition in vivo at 50 mg/kg [4]: 61.2%
- Total Protein [5, 8]: 53.89 ± 1.48*^b g/L
- Total Protein [5, 9]: 64.27 ± 2.08***^b g/L
- Total Protein [5, 10]: 72.25 ± 1.43***^b g/L
- Gastric Lesion Ulcer Index ([6]; 12.5 mg/kg): 29.83 ± 1.51
- Intraluminal Bleeding Score ([6]; 12.5 mg/kg): 3.66 ± 0.33
- Gastric Lesion Ulcer Index ([6]; 50 mg/kg): 21.00 ± 0.51
- Intraluminal Bleeding Score ([6]; 50 mg/kg): 2.00 ± 0.36
- Gastric Lesion Ulcer Index ([6]; 75 mg/kg): 29.00 ± 1.21
- Intraluminal Bleeding Score ([6]; 75 mg/kg): 2.66 ± 0.33
- Ulcer Index, indomethacin-induced gastric mucosal lesions ([7]; 12.5 mg/kg): 33.00 ± 1.03
- Ulcer Index, indomethacin-induced gastric mucosal lesions ([7]; 25 mg/kg): 30.66 ± 1.28
- Ulcer Index, indomethacin-induced gastric mucosal lesions ([7]; 50 mg/kg): 28.31 ± 1.78
